Key:
[1] = test system: fresh human peripheral blood neutrophils; test: NETosis on Cl-amidine eluting templates in vitro (DAPI/SYTOX Green BG ratio); assay type: cell-based
Protocol: 10 mm diameter punches of the templates (n=4) were placed in a 48-well culture plate and disinfected by UV irradiation. Isolated peripheral neutrophils from whole blood were suspended in sterile HBSS and used to seed templates with 600,000 cells in 250 μL of HBSS and cultured for 3 and 6 hours under standard conditions. Cellularized templates were then fixed in 10% buffered formalin and fluorescence quantification of NETs was carried out. Templates with 100 nM SYTOX Green for extracellular DNA followed by DAPI fixed cell nuclei stain at stock concentration (FIGS. 9A, 9B, 10A, 10B, and 11A). The ratio of DAPI (blue) to SYTOX green (BG ratio) pixels per image using MATLAB 2012a was quantified to determine degree of NETosis (FIGS. 12A and 12B).
Infrared scanning and quantification of citrullinated histone H3 (CitH3) was carried out as follows. Templates were incubated with rabbit anti-human histone H3 (citrulline R2+R8+R17) antibody (ABCAM) followed by IRDye 800CW donkey anti-rabbit secondary antibody. The templates were scanned on the 800-nm channel of the Odyssey CLx Infrared Imaging System (LICOR) to generate full-thickness template fluorescence. Template-bound CitH3 was quantified with standard curve of CitH3 vacuum blotted onto a PVDF membrane. Statistical analysis was carried out as follows. […] Then the plot of relative fluorescence against mass of CitH3 was fit with a linear regression. […]

PAD4 = target: T1, PAD4 (Homo sapiens, UniProt Q9UM07); test: PAD4 Inhibitor Screening Assay: Cl-amidine activity after exposure to electrospinning solvent HFP; assay type: biochemical
T1 construct: purchased
T1 sequence (Q9UM07 whole entry, species assumed): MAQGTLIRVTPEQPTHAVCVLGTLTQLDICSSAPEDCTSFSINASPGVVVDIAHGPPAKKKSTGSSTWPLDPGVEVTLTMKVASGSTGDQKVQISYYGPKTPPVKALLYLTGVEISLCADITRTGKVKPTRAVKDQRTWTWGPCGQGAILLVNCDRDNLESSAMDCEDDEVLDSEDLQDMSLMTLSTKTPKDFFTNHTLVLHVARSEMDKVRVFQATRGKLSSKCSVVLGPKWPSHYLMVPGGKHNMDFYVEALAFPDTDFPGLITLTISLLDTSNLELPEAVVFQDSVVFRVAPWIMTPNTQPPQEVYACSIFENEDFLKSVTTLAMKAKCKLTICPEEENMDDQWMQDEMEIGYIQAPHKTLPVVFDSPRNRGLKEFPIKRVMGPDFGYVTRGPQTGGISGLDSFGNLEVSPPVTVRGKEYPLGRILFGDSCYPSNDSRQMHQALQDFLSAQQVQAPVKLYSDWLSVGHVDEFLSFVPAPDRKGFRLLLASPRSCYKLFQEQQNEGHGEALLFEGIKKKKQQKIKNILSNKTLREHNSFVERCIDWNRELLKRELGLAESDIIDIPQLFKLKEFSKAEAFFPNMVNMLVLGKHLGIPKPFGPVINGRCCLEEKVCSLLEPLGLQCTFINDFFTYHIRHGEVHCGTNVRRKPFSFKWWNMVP
Description: The log transform of molarity against average fluorescent intensity was plotted for each concentration (FIG. 6).
As the concentration of drug increases, the relative fluorescence decreases, signifying an increase in the inhibition of PAD4. […] However, the drug was still active producing a sigmoidal curve similar to that of the HBSS samples.
In addition to determining the activity of Cl—Am, the samples exposed to HFP were used to create a standard curve for quantifying unknown Cl—Am concentrations. The four-parameter logistic regression of the HFP exposed samples (Equation 1, x=logarithmic transform of Cl—Am concentration and y=relative fluorescence) has an R2-value of 0.996, and there is no evidence of an inadequate model from the lack of fit test (p=0.28).
Lower fluorescence indicated greater inhibition of PAD4. No evidence of lack of fit (p=0.28) was found for the four-parameter regression of HFP exposed samples. […] This provided a standard curve for quantifying unknown Cl-amidine from elution studies.

N=C(CCl)NCCCC(NC(=O)c1ccccc1)C(N)=O [Cl-amidine, N-α-benzoyl-N5-(2-chloro-1-iminoethyl)-L-ornithine amide]
effect of eluted Cl-amidine on NETosis ([1]; on large diameter templates, 3 hours): opposite trend | effect of eluted Cl-amidine on NETosis ([1]; on small diameter templates, 3 hours (p<0.05)): significantly attenuated NETosis | lowest concentration inhibiting PAD4 activity (PAD4; after exposure to HFP): 1.2 µM | activity against PAD4 after exposure to HFP versus HBSS samples (PAD4; at two concentrations, 5.9 and 29.5 μM (p<0.0001)): significantly reduced its activity against PAD4 | efficacy after exposure to solvent HFP (PAD4; sigmoidal curve similar to HBSS samples): retained efficacy after exposure to HFP
